How the values were obtained:
human WT SLC26A9 = target: T1, human WT SLC26A9 (Homo sapiens, UniProt Q7LBE3); assay: SLC26A9 Cl−/I− exchange activity, YFP fluorescence in LN-215 cells; type: cell-based; conditions: 100 μM, FIG. 3
T1 construct: expressed in transfected cells
T1 sequence (Q7LBE3 1-791): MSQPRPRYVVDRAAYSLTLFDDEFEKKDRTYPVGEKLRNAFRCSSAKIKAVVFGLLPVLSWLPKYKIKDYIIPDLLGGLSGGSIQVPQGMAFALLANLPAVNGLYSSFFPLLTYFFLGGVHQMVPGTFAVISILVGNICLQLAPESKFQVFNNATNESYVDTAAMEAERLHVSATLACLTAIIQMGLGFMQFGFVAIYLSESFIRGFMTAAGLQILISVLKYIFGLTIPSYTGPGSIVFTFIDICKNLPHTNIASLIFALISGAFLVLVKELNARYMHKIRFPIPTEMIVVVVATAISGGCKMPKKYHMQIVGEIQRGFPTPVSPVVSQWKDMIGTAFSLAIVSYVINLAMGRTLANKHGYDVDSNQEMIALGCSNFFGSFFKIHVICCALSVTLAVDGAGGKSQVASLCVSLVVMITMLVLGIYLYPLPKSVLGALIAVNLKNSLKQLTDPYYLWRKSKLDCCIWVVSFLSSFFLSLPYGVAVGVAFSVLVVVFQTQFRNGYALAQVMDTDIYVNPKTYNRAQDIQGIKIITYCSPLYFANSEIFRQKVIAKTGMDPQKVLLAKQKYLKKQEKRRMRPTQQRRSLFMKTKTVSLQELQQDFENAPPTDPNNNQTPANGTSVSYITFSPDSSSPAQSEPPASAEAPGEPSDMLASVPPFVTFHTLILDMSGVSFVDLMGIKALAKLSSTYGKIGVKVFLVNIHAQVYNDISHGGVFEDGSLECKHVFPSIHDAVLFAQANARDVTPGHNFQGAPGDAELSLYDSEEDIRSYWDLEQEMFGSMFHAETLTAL
Description: Chinese hamster ovary (CHO)-K1 cells or LN-215 cells were cultured in DMEM medium containing 10% fetal bovine serum (FBS), 100 units/ml of penicillin and 100 μg/ml streptomycin. CHO-K1 cells or LN-215 cells were stably transfected with pcDNA3.1 encoding the halide sensor YFP-H148Q/I152L/F46L and human wild-type (WT)-SLC26A9. Fisher rat thyroid (FRT) cells stably transfected with YFP-H148Q/I152L/F46L and human wild type (WT)-CFTR or human wild type (WT)-ANO1 were cultured in DMEM/F-12 medium containing 10% fetal bovine serum (FBS), 100 units/ml of penicillin, and 100 μg/ml of streptomycin.
LN-215 cells expressing human WT SLC26A9 and YFP-F46L/H148Q/I152L, and FRT cells expressing human WT CFTR or ANO1 and YFP-F46L/H148Q/I152L were plated in 96-well microplates at a density of 2×10^4 cells per well, and cultured for 48 hours. […] After culturing at 37° C. for 10 minutes, the 96-well plate was located on the FLUOstar Omega Microplate Reader (BMG Labtech, Ortenberg, Germany) for a fluorescence assay. For assay of the activity of […], fluorescence was recorded continuously (400 ms per point) for 1 second (baseline), whereby each well was assayed individually for SLC26A9-mediated I-influx. Then, 50 μL of NaI-substituted HEPES buffered solution (replacing NaCl with NaI) was added using a liquid injector at 1 second, and YFP fluorescence was recorded for 6 seconds. […]

[1] = test system: Adriamycin-induced heart failure mouse model; assay: Diuretic effect in Adriamycin-induced heart failure mouse model; type: in vivo, C57BL/6N mice; conditions: heart failure mice
Description: Wild-type male C57BL/6N mice aged 8 weeks and weighing 20-24 g were purchased from Orient Bio (Seongnam, South Korea). Cardiac ultrasound imaging was performed before administration of Adriamycin. […] Five weeks later, cardiac ultrasound imaging was performed to confirm whether heart failure had been induced.
A 100 mg/ml stock concentration of YPI-A4948 dissolved in DMSO was prepared to have final concentrations of 0.1 mg/kg/100 ul, 0.5 mg/kg/100 ul and 1 mg/kg/100 ul (1% DMSO+DW), respectively. Heart failure mice were placed in mouse metabolic cages, and water and food were restricted. Before administering YPI-A4948, the bladder of the mouse was stimulated, and YPI-A4948 was injected intraperitoneally alone for two times in total, once every 3 hours for 6 hours. In other groups, it was administered with furosemide at 0.5 mg/kg and 1 mg/kg, respectively, in order to confirm the co-administration effect with other diuretics. Urine was collected from each group of mice after 6 hours.

Effect on activity of SLC26A9 (human WT SLC26A9) | SMILES | Diuretic effect, co-administered with furosemide ([1]; 0.5 mg/kg YPI-A4948 and 1.0 mg/kg furosemide) | Diuretic effect, administered alone ([1]; 1 mg/kg i.p. twice in 6 hours)
did not inhibit | Cc1ccc2[nH]c(C(=O)O)c(CC(=O)N3CCN(c4c(C)cccc4Cl)CC3)c2c1 [YPI-A4948, 3-(2-(4-(2-Chloro-6-methylphenyl)piperazin-1-yl)-2-oxoethyl)-5-methyl-1H-indole-2-carboxylic acid] | additive effect | showed a diuretic effect
did not inhibit | Cc1ccc(C)c(N2CCN(C(=O)Cc3c(C(=O)O)[nH]c4ccc(Cl)cc34)CC2)c1 [YPI-H05, 5-chloro-3-(2-(4-(2,5-dimethylphenyl)piperazin-1-yl-)-2-oxoethyl)-1H-indole-2-carboxylic acid] | – | –

Source: patent US20240287042A1, “NOVEL COMPOUND HAVING INHIBITORY ACTIVITY AGAINST PENDRIN, AND PHARMACEUTICAL USES THEREOF” (UIF (University Industry Foundation), Yonsei University, priority 2021, published 2024)
